Literature values in patent US5135753A, “Method and therapeutic system for smoking cessation” (Pharmetrix Corporation, priority 1991, dated 1992).

How the values were obtained:
skin = conditions: average penetration rate through the skin; very approximate figures
[1] = Russell
[2] = test system: nicotinic cholinergic receptors in the CNS and at autonomic ganglia; conditions: in 10 minutes
[3] = test system: smoking withdrawal symptoms; conditions: low consistent blood levels of nicotine; craving may not be among the relieved symptoms

## Clc1cccc(Cl)c1N=C1NCCN1 [clonidine]
skin
  skin flux: 0.5 μg/cm^2.h

## CN1CCCC1c1cccnc1 (stereo not shown) [nicotine]
Human cadaver skin; at later times, "and more"
  permeability at later times: ≥ 0.4 mg/cm^2.h
Human cadaver skin; first day of patch use
  permeability during the first day of patch use: ~0.1 mg/cm^2.h
skin
  skin flux: 100-300 μg/cm^2.h
Average adult
  lethal unit dose: about 60 mg
[1]
  optimal steady-state blood level for nicotine replacement: 10 to 15 ng/mL
[2]
  rise in nicotine blood level required to obtain postsynaptic effects: at least 10 ng/mL
[3]
  symptoms of nicotine withdrawal: relieve some of the symptoms of nicotine withdrawal

## O=[N+]([O-])OCC(CO[N+](=O)[O-])O[N+](=O)[O-] [nitroglycerin]
skin
  skin flux: 10-25 μg/cm^2.h

## C[C@]12CC[C@@H]3c4ccc(O)cc4CC[C@H]3[C@@H]1CC[C@@H]2O [estradiol]
skin
  skin flux: 0.01-0.03 μg/cm^2.h
